Assay results: patent US20210308077A1, “COMBINATIONS INCLUDING BETA-ADRENORECEPTOR AGONISTS FOR TREATMENT OF PARKINSON`S DISEASE AND MOVEMENT DISORDERS” (The Brigham and Women`s Hospital, Inc., priority 2017, published 2021)

Key:
[1] = tested on: H3K27 acetylation of SNCA promoter and enhancers; assay: chromatin immunoprecipitation for H3K27ac at SNCA promoter and enhancers in SK-N-MC cells; type: cell-based, human; conditions: clenbuterol 10 μM, valproic acid 100 μM, propranolol 100 μM, vs vehicle
Method: Chromatin immunoprecipitation (ChIP) assays were performed using the Simple ChIP Enzymatic Chromatin IP kit protocol as recommended by the manufacturer (Cell Signaling Technology) with slight modifications. Briefly, ChIPs were performed on asynchronously growing SK-N-MC cells treated with clenbuterol (10 μM), valproic acid (100 μM) or propranolol (100 μM). Cross-linking was carried out with 1% formaldehyde for 10 min at room temperature. Cross-linking was subsequently quenched by adding glycine to a final concentration of 1× for 5 min. Cells were collected and washed twice with PBS, then resuspended in 2 mL of lysis buffer (as described in the protocol). After 10 min on ice, cells were treated with micrococcal nuclease and then sonicated to obtain DNA fragments of ˜500 bp as determined by agarose gel electrophoresis with ethidium bromide staining. Protein-DNA complexes were isolated by centrifugation at 10,000 rpm for 10 min. Supernatants with protein-DNA complexes were incubated overnight with rabbit polyclonal antibody directed against acetylated H3K27 (Abcam). Normal rabbit IgG was used as a negative control and Histone H3 rabbit mAb (ChIP formulated) as positive control. 2% of sample was saved as input. Antibody-protein-DNA complexes were further incubated for 2 hours with 30 μl of ChIP-grade Protein G magnetic beads to isolate antibody bound fractions of chromatin. Immuno-complexes were washed with the buffers provided and as described in the kit. Protein-DNA complexes were eluted and cross-links of pull down fractions and inputs (2% of total IP fraction) were reversed by 2 hours incubation in Proteinase K and 5 M NaCl at 65° C. […] 2 μl of immunoprecipitated DNA was analyzed by qPCR using a Power SYBR Green PCR Master mix (Applied Biosystems by Life technologies) on an ABI 7900HT instrument (Applied Biosystems) with the following temperature profile: 3 min of enzyme activation at 95° C. followed by 40 cycles of 95° C. for 15 s and 60° C. for 60 s. Sample from three independent immunoprecipitation assays were analyzed.

α-synuclein protein [2] = assay: α-synuclein-specific ELISA in SK-N-MC cells; type: cell-based, human
Method: Protein lysis buffer containing 320 mM sucrose, 5 mM NaF, 1 mM Na3VO4, 10 mM Tris (pH 7.4), 1 mM EGTA, and 1 mM EDTA was used for mice brain tissue lysis. 100 μL of cold extraction buffer was added to each sample and homogenized in a dounce homogenizer. After incubating on ice for 10 minutes post-homogenization, samples were centrifuged at 10,000 rpm at 4° C. for 10 minutes. Supernatant was transferred to new tubes and centrifuged again at 10,000 rpm at 4° C. for additional 10 minutes. The final supernatant was transferred to new tubes and protein estimation was performed by ELISA. Total protein from rodent primary cells, human neuroblastoma cells and iPSC-derived neuronal cells was extracted using lysis buffer containing 1×PBS and 0.5% NP-40. Cells were washed once with cold PBS and lysed by adding cold lysis buffer. The cells were collected by scraping, then incubated for 30 minutes by rotating at 4° C. The samples were centrifuged at 14,000 rpm at 4° C. for 10 minutes and supernatant was transferred to new tubes. Total protein concentrations were determined by BCA assay (Thermo Scientific) according to the manufacturer's instructions. Total α-synuclein was quantified using an α-synuclein-specific sandwich ELISA.
(§1) An α-synuclein-specific Meso Scale Discovery (MSD) ELISA assay (described in Ref. (11)) was utilized for endogenous α-synuclein protein measurement. […] After samples were emptied and plate washed 3 times with TBS-T, sulfo-tagged SOY1 mAb (detection Ab) (generated using Sulfo-Tag-NHS-Ester (MSD) diluted in blocking buffer (6.7 ng/μl), was added to the plate (30 μl volumes/well) and shaken for 1 hour at room temperature. Following 3 washes, MSD Read (2×, diluted in ultrapure water) buffer was added and the plates were immediately measured using a MSD Sector 2400 imager. For confirmatory studies, an second α-synuclein-specific ELISA implementation was used employing a different, extensively published anti-α-synuclein detection antibody (Syn-1 mAb) and a different anti-α-synuclein capture antibody (1H9, courtesy Dr. Selkoe).

α-synuclein protein [3] = assay: α-synuclein protein in rat primary cortical neurons (ELISA); type: cell-based; conditions: metaproterenol 5 μM, clenbuterol 20 μM, salbutamol 10 μM, 72 hours
Method: (§2) Primary cortical cultures were generated from E18 Sprague-Dawley rat embryos. The cortical region was dissected out in Hank's Balanced Salt Solution buffered with Hepes and dissociated with 0.125% trypsin (Invitrogen) for 17 min at 37 ° C., followed by trituration. Dissociated cells were plated at a density of 5×10^5 cells/well or 2.5×10^5 cells/well in 12-well or 24-well plates, respectively precoated with poly-D lysine (100 μg/mL). The cells were cultured in Neurobasal medium with B-27 supplement (Invitrogen) and glutamax and gentamycin. Half of the medium was changed every 4 days. Cortical neurons were treated with β2AR agonists 10 days post plating. They were then harvested 48 hours post-treatment for mRNA extraction and 72 hours post-treatment for protein extraction.
Protein lysis buffer containing 320 mM sucrose, 5 mM NaF, 1 mM Na3VO4, 10 mM Tris (pH 7.4), 1 mM EGTA, and 1 mM EDTA was used for mice brain tissue lysis. 100 μL of cold extraction buffer was added to each sample and homogenized in a dounce homogenizer. […] Total protein concentrations were determined by BCA assay (Thermo Scientific) according to the manufacturer's instructions. Total α-synuclein was quantified using an α-synuclein-specific sandwich ELISA.
as §1

Snca mRNA = Snca mRNA in rat primary cortical neurons; type: cell-based; conditions: metaproterenol 5 μM, clenbuterol 20 μM, salbutamol 10 μM, 48 hours
Method: as §2
Total RNA from flash-frozen mice brain tissue, rodent primary cells, human neuroblastoma cells and iPSC-derived neuronal cells was isolated using TRIzol® (Life Technologies) following the manufacturer's protocol. RNA concentration was measured using NanoDrop spectrophotometer (Thermo Fisher Scientific, Wilmington, De.). 2 μg of total RNA was reverse transcribed into cDNA using the High Capacity cDNA Reverse Transcription Kit from Applied Biosystems. Quantitative PCR was performed using TaqMan Universal PCR Master Mix (Applied Biosystems) on an ABI 7900HT instrument (Applied Biosystems) as described previously (31). For mouse brain tissue and rat primary cortical neuron samples, rodent-specific TaqMan Assay on-demand primers and probes were used to assay the relative abundance of target genes, and rodent Rp113 was used as a reference gene to normalize for RNA loading. Similar results were obtained when Actb or Ubc were used as controls for input RNA. For human neuroblastoma and iPSC-derived neuron samples, human TaqMan Assay on-demand probes were used to assay the relative abundance of target genes, and the geometric mean of the three human reference genes RPL13, GUSB and UBC was used to normalize for RNA loading. Expression values were analyzed using the comparative threshold cycle method (31).

Row | Compound | H3K27 acetylation across SNCA promoter and two intronic enhancers (ChIP) [1] | endogenous α-synuclein protein under β2AR antagonism (α-synuclein protein [2]; SK-N-MC cells) | α-synuclein protein levels (α-synuclein protein [3]) | endogenous Snca mRNA (Snca mRNA) | α-synuclein protein after 14 days (α-synuclein protein [2]; SK-N-MC cells, 10 μM, 14 days) | α-synuclein protein levels with increasing concentrations (α-synuclein protein [2]; SK-N-MC cells, 5, 10, 20 μM, four days)
1 | CC(C)NCC(O)COc1cccc2ccccc12 (stereo not drawn) [Propranolol, propranolol] | increased H3K27Ac | increased | – | – | – | –
2 | CC(C)(C)NCC(O)c1ccc(O)c(CO)c1 (stereo not drawn) [Salbutamol, salbutamol] | – | – | significantly, but modestly, reduced | significantly, but modestly, reduced | – | –
3 | CC(C)(C)NCC(O)c1cc(Cl)c(N)c(Cl)c1 (stereo not drawn) [clenbuterol] | reduced H3K27 acetylation | – | significantly, but modestly, reduced | significantly, but modestly, reduced | lowered | decrease
